Experiments:
PPARγ DE / p300Nt-GST = biological target: T1, PPARγ DE / p300Nt-GST (Homo sapiens, UniProt P37231); assay: GST pull-down assay, PPARγ DE with p300Nt-GST; assay type: binding; conditions: anti-histidine blot, rosiglitazone 10^-4 M, FMOC-L-Leu 10^-3 M, compared to DMSO
T1 construct: made in house; host or cells: E. coli BL21 (DE3) for PPARgamma, pET15b; E. coli for the GST fusion, pGex4-T1
Source text: (§1) The beads were then washed and the samples separated on SDS-PAGE. Blots were developed with anti-histidine antibodies.
(§2) Production of proteins. The p300Nt-GST, SRC-1-GST and TIF2-GST fusion proteins were generated by cloning the N-terminal part of the cDNA coding for the p300 protein (amino acids 2 to 516), the region comprised between amino acids 568 and 780 of SRC-1 (SEQ ID NO: 03), and the domain between amino acids 618 and 826 of TIF2 (SEQ ID NO: 01), respectively, downstream of the glutathione-S-transferase (GST) protein in the pGex4-T1 vector (Pharmacia, Orsay, France). The fusion proteins were then expressed in E. coli and purified on a glutathione affinity matrix (Pharmacia). 6×-histidine-tagged human PPAR-gamma LBD (residues 203-477 of SEQ ID NO: 06) was overproduced in E. coli BL21 (DE3) using the pET15b as an expression plasmid (Novagen, Madison, Wis.) and purified by metal ion affinity chromatography on a Co^2+-loaded HiTrap Chelating column (Pharmacia Biotech, Peapack, N.J.) followed by gel filtration chromatography on a HiLoad Supcrdex 100 column (Pharmacia). The protein concentration was determined by the Bradford method (1976, Anal Biochem 72, 248-254).
(§3) Pull-down experiments. […] The beads were then washed 4 times with pull-down buffer and boiled in 4×-sample buffer. The samples were separated by 12% acrylamide SDS-PAGE and transferred to nitrocellulose membranes.

BDGal4-hPPARγ DE / p300 = biological target: T2, BDGal4-hPPARγ DE / p300 (Homo sapiens, UniProt P37231); assay: Mammalian two-hybrid assay in RK13 cells, Gal4-hPPARγ DE with p300; assay type: cell-based; conditions: 24 h, FMOC-L-Leu 10^-5M
T2 construct: expressed in transfected cells; host or cells: RK13 cells (ATCC)
T2 sequence (P37231 238-503 limits assumed): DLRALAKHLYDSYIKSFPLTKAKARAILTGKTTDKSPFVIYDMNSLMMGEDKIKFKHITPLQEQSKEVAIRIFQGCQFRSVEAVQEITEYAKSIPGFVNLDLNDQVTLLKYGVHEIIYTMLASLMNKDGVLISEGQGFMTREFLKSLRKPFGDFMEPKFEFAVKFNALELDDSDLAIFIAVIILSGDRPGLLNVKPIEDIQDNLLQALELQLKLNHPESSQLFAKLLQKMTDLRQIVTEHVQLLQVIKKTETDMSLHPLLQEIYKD
Procedure: (§4) FIG. 2: Interactions between PPAR-gamma and cofactors in cultured mammalian cells. Mammalian two-hybrid interaction between PPAR-gamma and the various co-activators in RK13 cells co-transfected with an expression vector for BDGal4-hPPARγ DE, pGL3-(Gal4)5TKLuc reporter construct, pCMV-βGal, as a control of transfection efficiency, and different expression vectors for different cofactors. Cells were grown during 24 h in the presence or absence of the indicated compound. Luciferase activity has been normalized. […] Each point was performed in triplicate. Bars not sharing similar superscripts are statistically different from each other (P<0.05, Fisher's Post-hoc analysis of 2×2 ANOVA with ligands and constructs as factors).
(§5) RK-13 cells were obtained from ATCC (Rockville, Md.). Cells were maintained in Dulbecco's modified Eagle's minimal essential medium (DMEM) supplemented with 10% fetal calf serum (FCS), L-glutamine, and antibiotics. Transfection studies with luciferase (luc.) reporter constructs were carried out as described previously (Oberfield et al., 1999, Proc Natl. Acad Sci USA 96, 6102-6106). The pGL3-(Gal4)5TKLuc reporter constructs are described elsewhere (Gelman et al., 1999, J. Biol. Chem. 274, 7681-7688). […]

[1] = biological target: T3, PPARγ DE/SRC-1-GST complexes (Homo sapiens, UniProt P37231); conditions: GST pull-down, anti-histidine blot; rosiglitazone 10^-4 M, FMOC-L-Leu 10^-3 M; compared to DMSO
T3 sequence (P37231 203-477 isoform P37231-2): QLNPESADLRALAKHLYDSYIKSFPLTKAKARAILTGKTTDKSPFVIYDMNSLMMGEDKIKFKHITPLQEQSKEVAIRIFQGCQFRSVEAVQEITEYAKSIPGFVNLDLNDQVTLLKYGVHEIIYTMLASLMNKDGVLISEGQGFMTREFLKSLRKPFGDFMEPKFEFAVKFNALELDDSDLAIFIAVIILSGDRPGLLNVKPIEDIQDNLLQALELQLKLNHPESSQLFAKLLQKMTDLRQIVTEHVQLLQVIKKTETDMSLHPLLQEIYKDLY
Source text: as §1, §2, §3

PPARγ DE / TIF2-GST = biological target: T4, PPARγ DE / TIF2-GST (Homo sapiens, UniProt P37231); assay: GST pull-down assay, PPARγ DE with TIF2-GST; assay type: binding; conditions: anti-histidine blot, rosiglitazone 10^-4 M, FMOC-L-Leu 10^-3 M, compared to DMSO
T4 construct: made in house; host or cells: E. coli BL21 (DE3) for PPARgamma, pET15b; E. coli for the GST fusion, pGex4-T1
T4 sequence (P37231 203-477 isoform P37231-2): T3 sequence (P37231 203-477 isoform P37231-2)
Source text: as §1, §2, §3

BDGal4-hPPARγ DE / TIF2 = biological target: T5, BDGal4-hPPARγ DE / TIF2 (Homo sapiens, UniProt P37231); assay: Mammalian two-hybrid assay in RK13 cells, Gal4-hPPARγ DE with TIF2; assay type: cell-based; conditions: 24 h, FMOC-L-Leu 10^-5M, rosiglitazone 10^-7M
T5 construct: expressed in transfected cells; host or cells: RK13 cells (ATCC)
T5 sequence (P37231 238-503 limits assumed): T2 sequence (P37231 238-503 limits assumed)
Procedure: as §4, §5

3T3-L1 cells = assay: 3T3-L1 adipocyte differentiation assay; assay type: cell-based, murine; conditions: FMOC-L-Leu 10^-5 M
Procedure: A: Expression of adipocyte markers during differentiation of 3T3-L1 cells treated with different PPAR-gamma agonists. Confluent 3T3-L1 cells were incubated with 2 μM insulin, 1 μM dexamethasone, and 0.25 mM isobuthyl methyl xanthine for two days. […] RNA was isolated from 3T3-L1 cells after different times of differentiation induction. Blots were hybridized with DNA probes that specifically bind to 36B4 (to control for RNA loading), lipoprotein lipase (LPL), or aP2.
Cells were stained with Oil Red O after 6 days of treatment.
3T3-L1 cells (ATCC, Rockville, Md.) were grown to confluence in medium A (Dulbecco's modified Eagle's Medium with 10% fetal calf serum, 100 units/ml penicillin, and 100 μg/ml streptomycin). Confluent cell were incubated in medium A containing 2 μM insulin, 1 μM dexamethasone, and 0.25 mM isobuthyl methyl xanthine for two days. Then, the cells were incubated in medium A in presence or absence of PPARγ agonist for 4 days, changing the medium every 2 days. Adipogenesis was evaluated by analysis of the expression of adipocyte-specific markers and by staining of lipids with Oil Red O (Chawla & Lazar, 1994, Proc. Natl. Acad. Sci. USA 91, 1786-1790).
RNA was isolated from 3T3-L1 cells by the acid guanidinium thiocyanate/phenol/chloroform method (Chomczynski & Sacchi, 1987, Anal. Biochem. 162, 156-159). Northern blot analysis of total cellular RNA was performed as described (Auwerx et al., 1989, Mol. Cell. Biol. 9, 2298-2302). Lipoprotein lipase (LPL), aP2 and 36B4 were used as probes (Lefebvre et al., 1997, Arterioscler.Thromb.Vasc.Biol. 17, 1756-1764; Laborda, 1991, Nucl. Acids Res. 19, 3998; Graves et al., 1992, Mol. Cell. Biol 12, 1202-1208).

BDGal4-hPPARγ DE / SRC-1 = biological target: T6, BDGal4-hPPARγ DE / SRC-1 (Homo sapiens, UniProt P37231); assay: Mammalian two-hybrid assay in RK13 cells, Gal4-hPPARγ DE with SRC-1; assay type: cell-based; conditions: 24 h, FMOC-L-Leu 10^-5M
T6 construct: expressed in transfected cells; host or cells: RK13 cells (ATCC)
Procedure: as §4, §5

[2] = Northern blot, extent close to rosiglitazone 10^-7 M

T1 sequence (Q09472 2-516 partner limits assumed, one chain of several): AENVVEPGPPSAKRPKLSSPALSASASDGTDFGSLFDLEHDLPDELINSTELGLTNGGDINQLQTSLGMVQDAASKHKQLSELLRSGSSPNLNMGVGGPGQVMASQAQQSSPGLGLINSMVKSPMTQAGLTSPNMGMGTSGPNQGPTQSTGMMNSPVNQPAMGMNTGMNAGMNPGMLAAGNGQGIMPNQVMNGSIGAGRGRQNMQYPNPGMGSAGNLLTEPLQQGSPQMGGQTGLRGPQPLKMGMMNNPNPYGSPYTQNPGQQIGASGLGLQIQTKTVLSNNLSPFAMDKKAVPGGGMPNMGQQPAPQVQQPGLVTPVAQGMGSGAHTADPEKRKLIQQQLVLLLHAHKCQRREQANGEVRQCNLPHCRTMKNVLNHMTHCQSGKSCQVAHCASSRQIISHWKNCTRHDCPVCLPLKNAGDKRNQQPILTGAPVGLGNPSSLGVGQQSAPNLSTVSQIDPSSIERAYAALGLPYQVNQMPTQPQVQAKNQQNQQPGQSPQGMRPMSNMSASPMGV
T6 sequence (Q15788 whole entry partner, one chain of several, the tested form may be a part): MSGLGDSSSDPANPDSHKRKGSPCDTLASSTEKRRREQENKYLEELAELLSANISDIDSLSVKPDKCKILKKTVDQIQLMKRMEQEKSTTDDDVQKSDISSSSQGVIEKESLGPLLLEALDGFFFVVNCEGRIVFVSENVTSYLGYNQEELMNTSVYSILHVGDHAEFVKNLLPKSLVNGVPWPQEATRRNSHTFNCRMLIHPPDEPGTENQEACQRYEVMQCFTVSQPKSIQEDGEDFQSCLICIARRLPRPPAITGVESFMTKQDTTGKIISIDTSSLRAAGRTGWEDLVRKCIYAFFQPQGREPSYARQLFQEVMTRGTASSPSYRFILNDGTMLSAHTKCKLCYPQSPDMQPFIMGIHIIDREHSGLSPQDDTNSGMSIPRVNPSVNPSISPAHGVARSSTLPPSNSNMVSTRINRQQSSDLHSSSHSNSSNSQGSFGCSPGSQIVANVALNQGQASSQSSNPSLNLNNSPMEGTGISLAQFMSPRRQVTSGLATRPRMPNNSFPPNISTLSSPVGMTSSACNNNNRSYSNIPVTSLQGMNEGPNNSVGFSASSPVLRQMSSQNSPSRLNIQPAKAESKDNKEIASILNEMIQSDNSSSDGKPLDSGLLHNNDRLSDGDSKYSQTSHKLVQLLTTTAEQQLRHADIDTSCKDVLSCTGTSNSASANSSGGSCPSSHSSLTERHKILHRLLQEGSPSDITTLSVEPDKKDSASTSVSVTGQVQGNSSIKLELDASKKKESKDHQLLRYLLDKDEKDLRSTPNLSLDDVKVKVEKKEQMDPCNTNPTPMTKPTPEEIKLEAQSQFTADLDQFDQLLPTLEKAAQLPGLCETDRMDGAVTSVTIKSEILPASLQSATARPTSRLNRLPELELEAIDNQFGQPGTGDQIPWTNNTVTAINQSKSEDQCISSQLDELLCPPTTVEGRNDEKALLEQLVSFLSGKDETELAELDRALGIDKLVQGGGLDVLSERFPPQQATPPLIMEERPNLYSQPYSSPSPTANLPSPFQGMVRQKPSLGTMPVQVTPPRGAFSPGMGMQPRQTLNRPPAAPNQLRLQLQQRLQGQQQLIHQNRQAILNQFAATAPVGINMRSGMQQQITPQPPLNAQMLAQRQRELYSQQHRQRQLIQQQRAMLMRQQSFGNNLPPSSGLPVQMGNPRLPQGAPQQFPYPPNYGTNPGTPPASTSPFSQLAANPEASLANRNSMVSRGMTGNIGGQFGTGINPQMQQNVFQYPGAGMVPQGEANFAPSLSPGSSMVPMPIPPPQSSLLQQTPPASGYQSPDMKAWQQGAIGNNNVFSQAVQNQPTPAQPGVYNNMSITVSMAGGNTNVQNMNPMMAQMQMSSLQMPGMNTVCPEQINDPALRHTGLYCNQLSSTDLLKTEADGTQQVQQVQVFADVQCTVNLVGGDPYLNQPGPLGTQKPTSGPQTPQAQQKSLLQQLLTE

CC(C)C[C@H](NC(=O)OCC1c2ccccc2-c2ccccc21)C(=O)O [FMOC-L-Leu, FMOC-L-leucine]
interaction between the PPARγ DE and p300Nt-GST (PPARγ DE / p300Nt-GST): increased the interaction | transactivation (luciferase) in the presence of p300 (BDGal4-hPPARγ DE / p300): no significant increase in transactivation | formation of PPARγ DE/SRC-1-GST complexes [1]: induced the formation | interaction between TIF2 and the PPARγ DE (PPARγ DE / TIF2-GST): not with FMOC-L-Leu | transactivation (luciferase) in the presence of TIF2 (BDGal4-hPPARγ DE / TIF2): no significant increase in transactivation | neutral lipid accumulation (Oil Red O staining) (3T3-L1 cells; 6 day incubation, rosiglitazone 10^-7 M): capable of inducing neutral lipid accumulation | LPL mRNA levels (3T3-L1 cells; [2]): significantly stimulated | aP2 mRNA levels (3T3-L1 cells; [2]): significantly stimulated | transactivation (luciferase) in the presence of SRC-1 (BDGal4-hPPARγ DE / SRC-1): much more pronounced and significant induction
